Drawing on PubChem BioAssay AID1259407 (Chemical Carcinogenesis Research Information System (CCRIS), 2018), this text covers mutagenic call for nine molecules.

This data set deals with CCRIS mutagenicity, Ames/micronucleus/aberration tests. In words: CCRIS mutagenicity studies.
Setting [1] is: Test System: AMES SALMONELLA TYPHIMURIUM, Strain/Indicator: TA98, Metabolic Activation: NONE, Method: PREINCUBATION
The mark [2] stands for this setting: Test System: AMES SALMONELLA TYPHIMURIUM, Strain/Indicator: TA100, Metabolic Activation: NONE, Method: PREINCUBATION
Setting [3] is: Test System: AMES SALMONELLA TYPHIMURIUM, Strain/Indicator: TA1535, Metabolic Activation: NONE, Method: PREINCUBATION
The mark [4] stands for this setting: Test System: AMES SALMONELLA TYPHIMURIUM, Strain/Indicator: TA98, Metabolic Activation: HAMSTER, LIVER, S-9, AROCLOR 1254, Method: PREINCUBATION
Where [5] appears, read: Test System: AMES SALMONELLA TYPHIMURIUM, Strain/Indicator: TA98, Metabolic Activation: RAT, LIVER, S-9, AROCLOR 1254, Method: PREINCUBATION
[6] abbreviates: Test System: AMES SALMONELLA TYPHIMURIUM, Strain/Indicator: TA100, Metabolic Activation: HAMSTER, LIVER, S-9, AROCLOR 1254, Method: PREINCUBATION
Where [7] appears, read: Test System: AMES SALMONELLA TYPHIMURIUM, Strain/Indicator: TA100, Metabolic Activation: RAT, LIVER, S-9, AROCLOR 1254, Method: PREINCUBATION
[8] abbreviates: Test System: AMES SALMONELLA TYPHIMURIUM, Strain/Indicator: TA1535, Metabolic Activation: HAMSTER, LIVER, S-9, AROCLOR 1254, Method: PREINCUBATION
The mark [9] stands for this setting: Test System: AMES SALMONELLA TYPHIMURIUM, Strain/Indicator: TA1535, Metabolic Activation: RAT, LIVER, S-9, AROCLOR 1254, Method: PREINCUBATION
The mark [10] stands for this setting: Test System: AMES SALMONELLA TYPHIMURIUM, Strain/Indicator: TA1537, Metabolic Activation: HAMSTER, LIVER, S-9, AROCLOR 1254, Method: PREINCUBATION
Setting [11] is: Test System: AMES SALMONELLA TYPHIMURIUM, Strain/Indicator: TA1537, Metabolic Activation: NONE, Method: PREINCUBATION
Setting [12] is: Test System: AMES SALMONELLA TYPHIMURIUM, Strain/Indicator: TA1537, Metabolic Activation: RAT, LIVER, S-9, AROCLOR 1254, Method: PREINCUBATION

Molecules are shown by their SMILES. Calls of active or inactive are those of the source. The rule behind the calls is not given here.

For the molecule `Cc1ccccc1-c1nc2ccccc2o1`, the mutagenic call by setting is: (Test System: AMES SALMONELLA TYPHIMURIUM, Strain/Indicator: TA98, Metabolic Activation: NONE, Method: STANDARD PLATE) “inactive; negative”; (Test System: AMES SALMONELLA TYPHIMURIUM, Strain/Indicator: TA98, Metabolic Activation: S-9, Method: STANDARD PLATE) “inactive; negative”.

As to `O=c1c2ccc3c4c(ccc(c24)c2nc4ccccc4n12)c(=O)n1c2ccccc2nc31`, the mutagenic call (Test System: AMES SALMONELLA TYPHIMURIUM, Strain/Indicator: TA97, Metabolic Activation: HAMSTER, LIVER, S-9, AROCLOR 1254 (10%), Method: PREINCUBATION) was “inactive; negative”; the mutagenic call (Test System: AMES SALMONELLA TYPHIMURIUM, Strain/Indicator: TA97, Metabolic Activation: NONE, Method: PREINCUBATION) was “active; positive”; the mutagenic call (Test System: AMES SALMONELLA TYPHIMURIUM, Strain/Indicator: TA97, Metabolic Activation: RAT, LIVER, S-9, AROCLOR 1254 (10%), Method: PREINCUBATION) is “inactive; negative”; the mutagenic call (Test System: AMES SALMONELLA TYPHIMURIUM, Strain/Indicator: TA98, Metabolic Activation: HAMSTER, LIVER, S-9, AROCLOR 1254 (10%), Method: PREINCUBATION) was “active; positive”; the mutagenic call under setting [1] was “active; positive”; the mutagenic call (Test System: AMES SALMONELLA TYPHIMURIUM, Strain/Indicator: TA98, Metabolic Activation: RAT, LIVER, S-9, AROCLOR 1254 (10%), Method: PREINCUBATION) is “inactive; negative”. Moreover, the mutagenic call (Test System: AMES SALMONELLA TYPHIMURIUM, Strain/Indicator: TA100, Metabolic Activation: HAMSTER, LIVER, S-9, AROCLOR 1254 (10%), Method: PREINCUBATION) is “inactive; negative”; the mutagenic call under setting [2] is “inactive; negative”; the mutagenic call (Test System: AMES SALMONELLA TYPHIMURIUM, Strain/Indicator: TA100, Metabolic Activation: RAT, LIVER, S-9, AROCLOR 1254 (10%), Method: PREINCUBATION) was “inactive; negative”; the mutagenic call (Test System: AMES SALMONELLA TYPHIMURIUM, Strain/Indicator: TA1535, Metabolic Activation: HAMSTER, LIVER, S-9, AROCLOR 1254 (10%), Method: PREINCUBATION) was “inactive; negative”; the mutagenic call under setting [3] is “inactive; negative”; the mutagenic call (Test System: AMES SALMONELLA TYPHIMURIUM, Strain/Indicator: TA1535, Metabolic Activation: RAT, LIVER, S-9, AROCLOR 1254 (10%), Method: PREINCUBATION) is “inactive; negative”.

In the case of `ClC1(Cl)C2(Cl)C3(Cl)C4(Cl)C(Cl)(Cl)C5(Cl)C3(Cl)C1(Cl)C5(Cl)C24Cl` (stereo unspecified), the mutagenic call is, setting by setting: under setting [4], “inactive; negative”; under setting [1], “inactive; negative”; under setting [5], “inactive; negative”; under setting [6], “inactive; negative”; under setting [2], “inactive; negative”; under setting [7], “inactive; negative”. Besides, the mutagenic call reads like this: under setting [8], “inactive; negative”; under setting [3], “inactive; negative”; under setting [9], “inactive; negative”; under setting [10], “inactive; negative”; under setting [11], “inactive; negative”; under setting [12], “inactive; negative”.

As for `CCC(O)CN(CC(O)CC)N=O` (stereo unspecified), the mutagenic call (Test System: CHINESE HAMSTER V-79, Strain/Indicator: V-79/OUABAIN, Metabolic Activation: HAMSTER, HEPATOCYTES, Method: CELL-MEDIATED) was “inactive; negative”.

As for `Cc1c2ccccc2c(CO)c2c3c(ccc12)[C@@H](O)[C@H](O)C=C3`, the mutagenic call was “active; positive” (Test System: CHINESE HAMSTER V-79, Strain/Indicator: V-79/6-THIOGUANINE, Metabolic Activation: CELL-MEDIATED, Method: STANDARD PLATE) and “active; positive” (Test System: CHINESE HAMSTER V-79, Strain/Indicator: V-79/OUABAIN, Metabolic Activation: CELL-MEDIATED, Method: STANDARD PLATE).

Turning to `CC=C(Cl)Cl`, the mutagenic call runs as follows: (Test System: AMES SALMONELLA TYPHIMURIUM, Strain/Indicator: RSJ100, Metabolic Activation: NONE, Method: PREINCUBATION) “active; positive”; (Test System: AMES SALMONELLA TYPHIMURIUM, Strain/Indicator: RSJ100, Metabolic Activation: NONE, Method: VAPOR PHASE) “active; positive”; under setting [1], “inactive; negative”; (Test System: AMES SALMONELLA TYPHIMURIUM, Strain/Indicator: TA98, Metabolic Activation: RAT, LIVER, S-9, AROCLOR, Method: PREINCUBATION) “inactive; negative”; under setting [2], “inactive; negative”; (Test System: AMES SALMONELLA TYPHIMURIUM, Strain/Indicator: TA100, Metabolic Activation: RAT, LIVER, S-9, AROCLOR, Method: PREINCUBATION) “inactive; negative”. For the same molecule, the mutagenic call was “inactive; negative” (Test System: AMES SALMONELLA TYPHIMURIUM, Strain/Indicator: TA104, Metabolic Activation: NONE, Method: PREINCUBATION); “inactive; negative” (Test System: AMES SALMONELLA TYPHIMURIUM, Strain/Indicator: TA104, Metabolic Activation: RAT, LIVER, S-9, AROCLOR, Method: PREINCUBATION); “inactive; negative” under setting [3]; “inactive; negative” (Test System: AMES SALMONELLA TYPHIMURIUM, Strain/Indicator: TA1535, Metabolic Activation: RAT, LIVER, S-9, AROCLOR, Method: PREINCUBATION); “inactive; negative” (Test System: AMES SALMONELLA TYPHIMURIUM, Strain/Indicator: TPT100, Metabolic Activation: NONE, Method: PREINCUBATION); “active; positive” (Test System: AMES SALMONELLA TYPHIMURIUM, Strain/Indicator: TPT100, Metabolic Activation: NONE, Method: VAPOR PHASE).

Consider `O=C(NO)OCc1ccccc1`, for which the mutagenic call (Test System: E. COLI, Strain/Indicator: WP2 UVRA, Metabolic Activation: NONE, Method: FLUCTUATION TEST) is “active; positive”.

For the molecule `Fc1ccc2cc3c(cc2c1)-c1cccc2cccc-3c12`, the mutagenic call (Test System: AMES SALMONELLA TYPHIMURIUM, Strain/Indicator: TA100, Metabolic Activation: RAT, LIVER, S-9, AROCLOR 1254, Method: STANDARD PLATE) is “active; positive”.

`c1ccc2occc2c1`: the mutagenic call was “inactive; negative” under setting [4]; “inactive; negative” under setting [1]; “inactive; negative” under setting [5]; “inactive; negative” under setting [6]; “inactive; negative” under setting [2]; “inactive; negative” under setting [7]. The mutagenic call runs as follows: under setting [8], “inactive; negative”; under setting [3], “inactive; negative”; under setting [9], “inactive; negative”; under setting [10], “inactive; negative”; under setting [11], “inactive; negative”; under setting [12], “inactive; negative”. Also, the mutagenic call (Test System: MOUSE LYMPHOMA, Strain/Indicator: L5178Y (TK+/TK-), Metabolic Activation: NONE, Method: SUSPENSION/PLATE) is “active; positive”.
